In a melting point compilation (Tetko et al.; mined from patent text by program, amines drawn as free bases though some values may be those of a salt) one finds melting point data, which are given here for 34 compounds.

One may read the melting point as the temperature, or range, at which the solid turns liquid.

For `CCCCCCCCCCCNC(=O)NCc1ccccc1`, the melting point was 97 °C.
In the case of `Cc1ccc(S(=O)(=O)NC2(c3ccccc3)C3=NCC(C)(C)CN3c3ccccc32)cc1` (centres undefined) it was 224 to 226 °C; in that of `N#Cc1cnc2ccsc2c1NCc1ccc(Cl)cc1Cl`, 215 to 216 °C; in that of `CON=C(N)C(F)(F)C(O)(Cn1cncn1)c1ccc(F)cc1F` (centres undefined), 114 °C.
`O=c1oc2ccccc2c(O)c1Sc1ccccc1` gave a melting point of 186 to 189 °C.
`Cc1ccc(S(=O)(=O)OCCN(c2ccc(OC(F)(F)F)cc2)S(=O)(=O)c2ccc(C)cc2)cc1` returned a melting point of 88 °C.
With `COc1ccc(CSCC(=O)NO)cc1OC` the figure was 78 °C; with `Nc1ccccc1C(=O)NC1CCCCC1`, 152 to 154 °C.
Turning to `CN(C(=O)OCc1ccccc1)[C@H]1CNc2ccccc2C1`, the melting point amounted to 80 °C.
With `CCCC(=O)NCCc1cccc2ccc(SC)cc12` the figure was 55 to 57 °C; with `CCOC(=O)c1cnc2nn(C)cc2c1N1CCCCC1`, 185 to 188 °C; with `CC(C)(C(N)=O)c1ccc(Br)cc1`, 139 to 141 °C.
With `COC(=O)c1ccc(OCCNC(=O)C2Cc3ccccc3N2S(=O)(=O)c2ccc(-c3cccc(C(F)(F)F)c3)cc2)cc1F` (centres undefined) the figure was 63 to 70 °C; with `Cc1ccc(-c2ccc(Cl)c(C(=O)O)n2)cc1C(=O)NCC1CCCCCC1`, 177 to 178 °C; with `OCc1sc2cc(Br)ccc2c1Cl`, 117 to 118 °C.
In the case of `COc1cc(C)cc2ncc(Br)n12` it was 105 to 106 °C.
For `COC(=O)c1ccc(CN2CCN(C(=O)c3cc(C(F)(F)F)cc(C(F)(F)F)c3)[C@H](Cc3c[nH]c4ccccc34)C2)cc1`, the melting point lay in the range of 75 to 78 °C.
With `[N-]=[N+]=NC1=C([C@H]2CC[C@H](c3ccc(Cl)cc3)CC2)C(=O)c2ccccc2C1=O` the figure was 130 to 135 °C; with `CCC1(CC)C(=O)N(C(C)(C)C)CC(C)(C)N1OC(C)c1ccc(CCl)cc1` (centres undefined), 66 to 68 °C; with `COC(=O)C(CC(C)C)NC(=O)c1cc([N+](=O)[O-])cc([N+](=O)[O-])c1` (centres undefined), 143 to 145 °C.
Regarding `Cc1ccc2c(c1)c(N1CCN(C(=O)c3cccs3)CC1)c(C#N)c(=O)n2Cc1ccccc1`, the melting point was 183 °C.
With `CCOc1ccc(C(=NO)c2ccc(OC)c(Cl)c2Cl)c(F)c1` the figure was 188 to 189 °C; with `COc1cc(N2CCN(C(=O)Cn3nc(C#N)c4cccnc43)CC2)ccc1Cl`, 183 to 185 °C.
Regarding `Nc1ccc(S(=O)(=O)c2cc(C3CC3)nc(N3CCCC3)c2)cc1`, the melting point lay within 216 to 218 °C.
With `CC1(C)CCC(C)(C)c2cc(-c3cc(-c4ccc(C(=O)O)cc4)ccc3OCCCCO)ccc21` the figure was 235 °C; with `Cn1[nH]c(=O)n(-c2ccc(Cl)cc2F)c1=S`, 75 °C.
In the case of `CCc1nccc(NC2COC(c3ccccc3)OC2)c1Cl` (centres undefined) it was 119 to 120 °C.
With `C[C@H](O)CNc1nc(Oc2ccc(F)cc2F)cc2[nH]nc(-c3ccccc3Cl)c12` the figure was 171 to 172 °C.
As to `Cc1nc(N2CCN(CC3CC3)C2=O)sc1C(=O)NCc1ccc(F)cc1`, the melting point fell in the range of 146 to 147 °C.
The compound `COc1cc(OC(C)=O)c(OC)c(CCCCCc2c(OC)c(OC(C)=O)cc(OC)c2OC(C)=O)c1OC(C)=O` gave a melting point of 94.5 to 95 °C.
`CC(C)(C)OC(=O)C(C)(C)ON=C(C(=O)O)c1cccs1` showed a melting point of 201 to 202 °C.
With `Cc1nc2cc(C(=O)NC(C)C)c(NC(=O)c3cc(C(F)(F)F)nn3-c3ncccc3Cl)c(Cl)c2n1C` the figure was 248 to 250 °C; with `COc1ccc(-c2cnc(C(N)=O)nc2)cc1OC1CCCC1`, 235 to 238 °C; with `CCc1nn(C)c2c1C(c1ccccc1)=NCC(C(=NO)C(=O)OC)=N2`, 225 to 227 °C.
